Measurements published in patent publication US5298494A, “Monosaccharides having anti-proliferation and anti-inflammatory activity, compositions and uses thereof” (Greenwich Pharmaceuticals Incorporated, priority 1993, dated 1994).
Read-outs that look alike come from different tables or passages of the source.

Experiments:
[1] = system: T cell proliferation in mouse spleen cell mixed lymphocyte cultures; experiment: Mixed Lymphocyte Reaction (MLR) assay; type: cell-based, mouse (Balb/c responder, C57B1/6 stimulator); conditions: for inhibition at 3 µM / inhibition at 10 µM / inhibition at 30 µM / inhibition at 100 µM / inhibition at 300 µM: Mus musculus, Lymphocyte, read-out: % Change From Control, MLR
Description: The pharmacologic assays performed to determine the immunomodulatory effects of the experimental compounds in vitro include the Mixed Lymphocyte Reaction (MLR) and the ConA blastogenesis assay. These assays were used to determine the inhibitory effects of the compounds of the invention on T lymphocyte activation and proliferation. Since inflammation at the cellular level is characterized by T lymphocyte recruitment, activation and proliferation, these assays are appropriate to use as screens for novel compounds having therapeutic potential in the treatment of disorders in which inflammatory mechanisms are involved.
The MLR is a classical assay used to measure T cell function by studying the proliferative response of T cells which are activated in vitro by genetically disparate stimulator cells. This is accomplished by co-culturing spleen cells from two different strains of mice. Splenic T cell proliferation occurs as a result of cellular activation signals generated by the ongoing cellular interactions.
Balb/c mice were euthanised by cervical dislocation and their spleens removed. Single cell suspensions of the spleens were prepared in culture medium (hepes buffered RPMI-1640 supplemented with 10% fetal calf serum, 2mM glutamine, 500 units penicillin/ streptomycin, and 4×10^-5 M 2-mercaptoethanol) using a Teflon pestle. The cells were centrifuged at 1500 rpm and the pellets resuspended in ACT (0.15M tris, 0.14M ammonium chloride, pH 7.2) in order to lyse the red blood cells. After a 5 minute incubation in a 37 C. waterbath, the cells were resuspended in culture medium and counted. C57B1/6 spleen cells which were used as stimulator cells, were also prepared by this method. The stimulator cells were treated with 100 ug/ml of mitomycin c for 1 hour at 37 C. (to inhibit stimulatory cell proliferation) and were then washed 5 times in culture medium. The proliferative responses were measured by culturing 2.5×10^5 responder cells with 5×10^5 stimulatory cells in 96 well microtiter plates in the presence or absence of various doses of test compounds or vehicle (DMSO). Syngeneic control cultures using mitomycin c treated Balb/c spleen cells as stimulator cells were also run. All cultures were run in triplicate.
Solutions of compounds of the present invention in DMSO were prepared at a stock concentration of 120 Mm. Dilutions were made in culture medium to the following concentrations: 3, 10, 30, 100, and 300 uM. The vehicle (DMSO) was used as a negative control.
After incubation of for 5 days at 37 C. with 5% CO2, the amount of cell proliferation was measured by adding 20 ul of MTT (3-[4,5-dimethylthiazol-2-yl]-2,5diphenyl-tetrazolium bromide) (10 mg/ml in phosphate buffered saline) to each well. Plates were incubated for 4 hours at 37 C., after which 180 ul of 10% sodium dodecyl sulphate in phosphate buffered saline was added. After an overnight incubation, the optical density (OD) of each well was read on a Molecular Devices microplate reader at 570-650 nm. The results were determined by calculating the difference between the means of the allogeneic cultures and the means of the syngenic cultures for each test article concentration. Differences of the test article groups were compared to the control group and the percent change from the control was determined.

[2] = system: T lymphocytes (normal mouse spleen cells) stimulated with ConA; experiment: Mouse Spleen Cell ConA Blastogenesis Assay; type: cell-based, mouse (C57Bl/6); conditions: Mus musculus, T-lymphocyte; for inhibition at 0.1 µg/mL: compound 0.1 ug/ml; for inhibition at 1 µg/mL: compound 1 ug/ml; for inhibition at 2.5 µg/mL: compound 2.5 ug/ml; for inhibition at 10 µg/mL: compound 10 ug/ml; for inhibition at 25 µg/mL: compound 25 ug/ml; for inhibition at 100 µg/mL: compound 100 ug/ml
[3] = ConA 1 ug/ml, 0.01 ug/ml, read-out: % Change from Control (Table II)
[4] = ConA 1 ug/ml, compound 0.01 ug/ml, read-out: % change from control, ConA blastogenic response
[5] = ConA 1 ug/ml, read-out: % change from control, ConA blastogenic response
[6] = ConA 4 ug/ml, 0.01 ug/ml, read-out: % Change from Control (Table II)
[7] = ConA 4 ug/ml, compound 0.01 ug/ml, read-out: % change from control, ConA blastogenic response
[8] = ConA 4 ug/ml, read-out: % change from control, ConA blastogenic response

| SMILES | Mean O.D. Allogenic ([1]; 3 um) | Mean O.D. Syngeneic ([1]; 3 um) | Mean O.D. Allogenic ([1]; 10 um) | Mean O.D. Syngeneic ([1]; 10 um) | Mean O.D. Allogenic ([1]; 30 um) | Mean O.D. Syngeneic ([1]; 30 um) | Mean O.D. Allogenic ([1]; 100 um) | Mean O.D. Syngeneic ([1]; 100 um) | Mean O.D. Allogenic ([1]; 300 um) | Mean O.D. Syngeneic ([1]; 300 um) | inhibition at 3 µM ([1]; 3 um) | inhibition at 10 µM ([1]; 10 um) | inhibition at 30 µM ([1]; 30 um) | inhibition at 100 µM ([1]; 100 um) | inhibition at 300 µM ([1]; 300 um) | inhibition at 0.01 µg/mL [2, 3] | inhibition at 0.01 µg/mL [2, 4] | inhibition at 0.1 µg/mL [2, 5] | inhibition at 1 µg/mL [2, 5] | inhibition at 2.5 µg/mL [2, 5] | other results |
| --- | --- | --- | --- | --- | --- | --- | --- | --- | --- | --- | --- | --- | --- | --- | --- | --- | --- | --- | --- | --- | --- |
| CCCCC/C=C\COC[C@H]1O[C@](COC/C=C\CCCCC)(OC)[C@@H](O)[C@@H]1O [Ig, methyl 1,6-di-O-(cis,2-octenyl)-α-D-fructofuranoside] | 0.412 O.D. | 0.155 O.D. | 0.421 O.D. | 0.182 O.D. | 0.399 O.D. | 0.157 O.D. | 0.419 O.D. | 0.173 O.D. | 0.474 O.D. | 0.037 O.D. | -34% | -24% | -26% | -28% | -81% | 3% | -10% | 10% | 4% | 11% | inhibition at 10 µg/mL [2, 5]: 87%; inhibition at 25 µg/mL [2, 5]: 84%; inhibition at 100 µg/mL [2, 5]: 99%; inhibition at 0.01 µg/mL [2, 6]: -7%; inhibition at 0.01 µg/mL [2, 7]: -12%; inhibition at 0.1 µg/mL [2, 8]: 9%; inhibition at 1 µg/mL [2, 8]: 5%; inhibition at 2.5 µg/mL [2, 8]: 20%; inhibition at 10 µg/mL [2, 8]: 73%; inhibition at 25 µg/mL [2, 8]: 77%; inhibition at 100 µg/mL [2, 8]: 100% |
| CCCCCCCOC[C@H]1O[C@](COCC)(OC)[C@@H](OCC)[C@@H]1O [Ib, methyl 1,3-di-O-ethyl-6-O-heptyl-α-D-fructofuranoside] | 0.319 O.D. | 0.162 O.D. | 0.382 O.D. | 0.194 O.D. | 0.372 O.D. | 0.185 O.D. | 0.353 O.D. | 0.223 O.D. | 0.265 O.D. | 0.189 O.D. | 18% | 2% | 3% | 32% | 60% | 55% | 57% | 66% | 72% | 92% | inhibition at 10 µg/mL [2, 5]: 96%; inhibition at 25 µg/mL [2, 5]: 97%; inhibition at 100 µg/mL [2, 5]: 99%; inhibition at 0.01 µg/mL [2, 6]: 25%; inhibition at 0.01 µg/mL [2, 7]: 35%; inhibition at 0.1 µg/mL [2, 8]: 45%; inhibition at 1 µg/mL [2, 8]: 67%; inhibition at 2.5 µg/mL [2, 8]: 68%; inhibition at 10 µg/mL [2, 8]: 76%; inhibition at 25 µg/mL [2, 8]: 86%; inhibition at 100 µg/mL [2, 8]: 99% |
